This is an account of results in US20250222120A1, “SYNTHESIS OF NOVEL SMALL MOLECULE CARM1 DEGRADERS, COMPOUNDS FORMED THEREBY, AND PHARMACEUTICAL COMPOSITIONS CONTAINING THEM” (Wisconsin Alumni Research Foundation, priority 2024, published 2025).

One test concerns the target T1, PRMT1 (Homo sapiens, UniProt Q99873).
T1 construct: we performed a global quantitative proteomic analysis of MCF7 cells using mass spectrometry; endogenous in cells; host or cells: MCF7
Put plainly: Global proteomics of MCF7 cells, PRMT1 level. The class given is cell-based. Particulars: 25 nM, 4 h, versus DMSO. The method, then:
Sample preparation for global proteomics analysis. Sample preparation is similar to the previous report (Ma et al. “Strategy Based on Deglycosylation, Multiprotease, and Hydrophilic Interaction Chromatography for Large-Scale Profiling of Protein Methylation” Anal. Chem. 2017, 89 (23), 12909-12917). Briefly, treated MCF7 cells were harvested by washing with PBS buffer (Gibco, pH 7.4) and lysed in RIPA buffer supplemented with protease inhibitors for 20 min, then protein concentration was determined using a BCA Protein Assay Kit (Thermo Pierce, Rockford, IL) per manufacturer instructions. […] The concentrations of the peptide mixture were measured by peptide assay (Thermo Fisher Scientific). […]
LC-MS/MS data acquisition. Samples were analyzed on an Orbitrap Fusion Lumos Tribrid mass spectrometer (Thermo Fisher Scientific) coupled to a Dionex UltiMate 3000 UPLC system. […]
Data analysis. Protein identification and quantification by MaxQuant (version 1.5.3.8) based database searching, using the integrated Andromeda search engine with FDR <1% at peptide and protein levels. […] For label-free protein quantification (LFQ), the MaxQuant LFQ algorithm was used to quantitate the MS signals, and the proteins' intensities were represented in LFQintesnit (Schaab et al. “Analysis of High Accuracy, Quantitative Proteomics Data in the MaxQB Database” Mol. Cell. Proteomics 2012, 11 (3), M111.014068). […]

For the next test, the target named is T2, CARM1 (Homo sapiens, UniProt Q86X55).
T2 sequence (Q86X55 1-608): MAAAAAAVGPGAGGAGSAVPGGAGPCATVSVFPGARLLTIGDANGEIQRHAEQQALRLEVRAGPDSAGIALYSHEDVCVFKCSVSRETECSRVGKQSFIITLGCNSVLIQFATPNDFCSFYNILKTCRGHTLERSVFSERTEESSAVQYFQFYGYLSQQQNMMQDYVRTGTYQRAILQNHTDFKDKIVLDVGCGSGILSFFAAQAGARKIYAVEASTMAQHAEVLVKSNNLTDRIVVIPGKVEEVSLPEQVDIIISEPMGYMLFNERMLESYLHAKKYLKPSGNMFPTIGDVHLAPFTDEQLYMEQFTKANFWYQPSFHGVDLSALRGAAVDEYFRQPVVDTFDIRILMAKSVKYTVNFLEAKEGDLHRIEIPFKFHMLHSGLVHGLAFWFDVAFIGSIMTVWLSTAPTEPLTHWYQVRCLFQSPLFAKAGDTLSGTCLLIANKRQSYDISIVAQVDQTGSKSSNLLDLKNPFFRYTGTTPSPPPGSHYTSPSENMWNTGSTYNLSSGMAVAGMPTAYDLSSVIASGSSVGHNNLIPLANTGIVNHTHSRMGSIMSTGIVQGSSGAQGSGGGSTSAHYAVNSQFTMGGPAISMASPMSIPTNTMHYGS
Put plainly: CARM1 degradation by western blot in MCF10A cells. Further details: endogenous in cells. It counts as cell-based. Conditions: normal human mammary epithelial cell model. The method, then:
FIG. 5. […] Cell lysates were collected and the CARM1 levels were detected by western blots.
Western Blot Assay. Cells were harvested and washed with Dulbecco's phosphate-buffered saline (PBS), then lysed with 1×RIPA lysis buffer (50 mM Tris pH 7.5, 150 mM NaCl, 1% NP-40, 0.5% sodium deoxycholate, and 0.1% sodium dodecyl sulfate) supplemented with 1 mM phenylmethylsulfonyl fluoride, 10 μg/mL aprotinin, 1 μM leupeptin, and 10 μg/mL pepstatin on ice for 20 min. The supernatant was collected after spinning down at 15000 RPM at 4 degrees Celsius for 10 min. The concentration of whole lysates was quantified using a Bradford assay. 50-75 μg of cell lysates was boiled in 4× Laemmli Loading Dye and boiled at 100 degrees Celsius for 10 min. 25 μg were run in 8% SDS-PAGE gels and transferred to nitrocellulose membranes. Blots were blocked in 5% skim milk in PBST [PBS and 0.1% Tween 20] for 45 min, then incubated with primary antibodies at 4 degrees Celsius overnight. Blots were washed in PBST for 30 min, then incubated with horseradish peroxidase-linked secondary antibodies (Jackson ImmunoResearch) for 1 hr. Afterwards, blots were washed in PBST for 15-30 min, then treated with chemiluminescent ECL reagent and imaged with the ChemiDoc Imaging System (Bio-Rad) or Azure 600 (Azure Biosystems). […]

T1 sequence (Q99873 whole entry): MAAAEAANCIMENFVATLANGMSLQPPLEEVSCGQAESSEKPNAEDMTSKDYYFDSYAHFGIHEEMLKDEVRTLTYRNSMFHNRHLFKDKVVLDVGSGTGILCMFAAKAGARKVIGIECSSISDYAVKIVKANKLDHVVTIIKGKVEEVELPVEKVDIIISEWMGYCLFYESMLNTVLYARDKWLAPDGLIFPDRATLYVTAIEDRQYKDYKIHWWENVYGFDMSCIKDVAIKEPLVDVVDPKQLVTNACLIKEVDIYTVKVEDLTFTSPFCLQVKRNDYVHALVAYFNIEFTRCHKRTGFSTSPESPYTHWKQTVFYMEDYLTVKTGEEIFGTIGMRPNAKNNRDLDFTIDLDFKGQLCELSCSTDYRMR

As for `CNCCN1CCC(c2cc(CN(C)C(=O)c3cccc(Oc4ccc(OCC(=O)N5CCC(CN6CCC(CN7CCN(CC(=O)N[C@H](C(=O)N8C[C@H](O)C[C@H]8C(=O)N[C@@H](C)c8ccc(-c9scnc9C)cc8)C(C)(C)C)CC7)CC6)CC5)cc4)c3)ccn2)CC1` [Compound 3b, (2S,4R)-1-((S)-3,3-dimethyl-2-(2-(4-((1-((1-(2-(4-(3-(methyl((2-(1-(2-(methylamino)ethyl)piperidin-4-yl)pyridin-4-yl)methyl)carbamoyl)phenoxy)phenoxy)acetyl)piperidin-4-yl)methyl)piperidin-4-yl)methyl)piperazin-1-yl)acetamido)butanoyl)-4-hydroxy-N—((S)-1-(4-(4-methylthiazol-5-yl)phenyl)ethyl)pyrrolidine-2-carboxamide], at PRMT1, the “PRMT1 protein level in proteomics” value is “not significantly changed”. Moreover, the CARM1 degradation entry at CARM1 is “high potency for CARM1 degradation”.
